Laboratory results as given in paper PMC2248166, “Quantitative peptide binding motifs for 19 human and mouse MHC class I molecules derived using positional scanning combinatorial peptide libraries” (Immunome Research, 2008).
Where a SMILES comes first, the peptide text is derived from it.

Target: HLA A*3001 (Homo sapiens, UniProt P04439, D140H/D185E/E176W/F33S/G80R/H175R/K168Q/R138E/R41S)
Assay: biochemical
Format: binding

Chain of HLA A*3001 (P04439 25-365 limits assumed, stated change not applied): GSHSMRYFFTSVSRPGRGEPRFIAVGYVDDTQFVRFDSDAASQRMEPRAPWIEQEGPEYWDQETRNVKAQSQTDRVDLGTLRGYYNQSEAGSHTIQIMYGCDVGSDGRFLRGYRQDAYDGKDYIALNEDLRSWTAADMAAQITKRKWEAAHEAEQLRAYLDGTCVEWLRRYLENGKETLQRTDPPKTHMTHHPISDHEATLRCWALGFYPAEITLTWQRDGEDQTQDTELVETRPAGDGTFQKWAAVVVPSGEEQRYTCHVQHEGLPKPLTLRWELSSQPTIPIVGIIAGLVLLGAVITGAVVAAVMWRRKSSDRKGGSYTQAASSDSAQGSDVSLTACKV

Row | Compound | IC50 [nM]
1 | CC(C)[C@H](NC(=O)[C@H](C)NC(=O)[C@H](Cc1ccccc1)NC(=O)[C@H](CO)NC(=O)[C@H](CS)NC(=O)[C@H](CCCNC(=N)N)NC(=O)[C@H](Cc1ccc(O)cc1)NC(=O)[C@@H](N)CCCNC(=N)N)C(=O)N[C@@H](C)C(=O)O [3102.0102] (H-RYRCSFAVA-OH) | 0.0038
2 | CC(C)C[C@H](NC(=O)[C@H](CO)NC(=O)[C@@H](N)CCCCN)C(=O)N[C@@H](Cc1ccc(O)cc1)C(=O)N[C@@H](CO)C(=O)N[C@@H](Cc1c[nH]cn1)C(=O)N[C@@H](CCC(N)=O)C(=O)N[C@@H](CC(C)C)C(=O)N[C@H](C(=O)O)C(C)C [3102.0103] (H-KSLYSHQLV-OH) | 12
3 | CC[C@H](C)[C@H](NC(=O)[C@@H]1CCCN1C(=O)[C@H](CC(C)C)NC(=O)[C@H](CCCNC(=N)N)NC(=O)[C@@H](NC(=O)[C@@H](N)CCSC)[C@@H](C)O)C(=O)N[C@@H](CC(C)C)C(=O)N[C@@H](CC(C)C)C(=O)N[C@@H](CC(C)C)C(=O)O [3102.0104] (H-MTRLPILLL-OH) | 0.65
4 | CC(C)C[C@H](NC(=O)[C@@H](N)CCCCN)C(=O)N[C@@H](CCCNC(=N)N)C(=O)N[C@@H](CS)C(=O)N[C@@H](CCCNC(=N)N)C(=O)N[C@@H](CC(N)=O)C(=O)N[C@H](C(=O)N[C@@H](CCC(=O)O)C(=O)N[C@@H](C)C(=O)O)[C@@H](C)O [3102.0105] (H-KLRCRNTEA-OH) | 14
5 | CC[C@H](C)[C@H](NC(=O)[C@@H](N)CCCNC(=N)N)C(=O)N[C@@H](CCCNC(=N)N)C(=O)N[C@@H](CCC(N)=O)C(=O)N[C@@H](CCC(N)=O)C(=O)N[C@@H](CC(C)C)C(=O)N1CCC[C@H]1C(=O)N[C@@H](CC(C)C)C(=O)N[C@@H](Cc1ccc(O)cc1)C(=O)O [3102.0107] (H-RIRQQLPLY-OH) | 13
6 | CC(C)C[C@H](NC(=O)[C@H](CC(N)=O)NC(=O)[C@H](CCC(N)=O)NC(=O)[C@H](CC(N)=O)NC(=O)[C@H](CO)NC(=O)[C@H](CC(C)C)NC(=O)[C@H](Cc1c[nH]cn1)NC(=O)[C@@H](NC(=O)[C@@H](N)Cc1c[nH]cn1)[C@@H](C)O)C(=O)O [3102.0108] (H-HTHLSNQNL-OH) | 5.8
7 | CC[C@H](C)[C@H](NC(=O)[C@H](CC(C)C)NC(=O)[C@H](CCCNC(=N)N)NC(=O)[C@H](CCC(N)=O)NC(=O)[C@H](CCCNC(=N)N)NC(=O)[C@H](Cc1ccc(O)cc1)NC(=O)[C@@H](N)CCCNC(=N)N)C(=O)N[C@@H](CO)C(=O)N[C@@H](CC(C)C)C(=O)O [3102.0110] (H-RYRQRLISL-OH) | 5.2
8 | CC[C@H](C)[C@H](NC(=O)[C@H](Cc1ccc(O)cc1)NC(=O)[C@H](CO)NC(=O)[C@H](CC(C)C)NC(=O)[C@H](Cc1ccccc1)NC(=O)[C@H](Cc1c[nH]cn1)NC(=O)[C@H](CCCNC(=N)N)NC(=O)[C@@H](NC(=O)[C@@H](N)CCCNC(=N)N)[C@@H](C)O)C(=O)O [3102.0111] (H-RTRHFLSYI-OH) | 0.24
9 | CC[C@H](C)[C@H](NC(=O)[C@H](CC(N)=O)NC(=O)[C@H](CCCNC(=N)N)NC(=O)[C@@H](NC(=O)[C@H](CCCNC(=N)N)NC(=O)[C@H](CO)NC(=O)CN)C(C)C)C(=O)N[C@H](C(=O)N[C@@H](C)C(=O)O)[C@@H](C)CC [3102.0112] (H-GSRVRNIIA-OH) | 8.9
10 | NCCCC[C@H](NC(=O)[C@H](CS)NC(=O)[C@@H]1CCCN1C(=O)[C@H](CC(N)=O)NC(=O)[C@H](CCC(=O)O)NC(=O)[C@H](Cc1ccc(O)cc1)NC(=O)[C@H](CCCCN)NC(=O)[C@H](Cc1c[nH]c2ccccc12)NC(=O)[C@@H](N)CCCCN)C(=O)O [3102.0113] (H-KWKYENPCK-OH) | 15
11 | CC(C)[C@H](NC(=O)[C@H](CO)NC(=O)[C@H](C)NC(=O)[C@H](Cc1c[nH]cn1)NC(=O)[C@H](CC(N)=O)NC(=O)[C@H](Cc1ccccc1)NC(=O)[C@H](C)NC(=O)[C@@H](N)CCCCN)C(=O)N[C@@H](CCCCN)C(=O)O [3102.0118] (H-KAFNHASVK-OH) | 35
12 | CSCC[C@H](NC(=O)[C@H](CCCNC(=N)N)NC(=O)CNC(=O)[C@H](CO)NC(=O)[C@H](CO)NC(=O)[C@@H](NC(=O)[C@@H](N)CCCCN)[C@@H](C)O)C(=O)N1CCC[C@H]1C(=O)N[C@H](C(=O)O)C(C)C [3102.0119] (H-KTSSGRMPV-OH) | 2
13 | C[C@H](NC(=O)[C@H](Cc1ccc(O)cc1)NC(=O)[C@H](CCCNC(=N)N)NC(=O)[C@H](Cc1ccc(O)cc1)NC(=O)[C@@H](NC(=O)[C@@H](N)CCCCN)[C@@H](C)O)C(=O)N[C@@H](Cc1ccccc1)C(=O)N[C@@H](CO)C(=O)N[C@@H](CCCCN)C(=O)O [3102.0120] (H-KTYRYAFSK-OH) | 22
14 | CSCC[C@H](NC(=O)[C@@H](N)CCCCN)C(=O)N[C@@H](CCCNC(=N)N)C(=O)N[C@@H](CC(=O)O)C(=O)N[C@H](C(=O)N[C@@H](CC(C)C)C(=O)N1CCC[C@H]1C(=O)N[C@@H](C)C(=O)N[C@@H](CCCCN)C(=O)O)[C@@H](C)O [3102.0121] (H-KMRDTLPAK-OH) | 1.6
15 | CC[C@H](C)[C@H](NC(=O)[C@H](Cc1ccc(O)cc1)NC(=O)[C@@H](NC(=O)[C@@H](N)CCCCN)C(C)C)C(=O)N[C@@H](CC(N)=O)C(=O)N[C@@H](Cc1c[nH]cn1)C(=O)N1CCC[C@H]1C(=O)N[C@@H](Cc1ccccc1)C(=O)N[C@@H](CCSC)C(=O)O [3102.0124] (H-KVYINHPFM-OH) | 0.52
16 | CC[C@H](C)[C@H](N)C(=O)N[C@H](C(=O)N[C@@H](CCCNC(=N)N)C(=O)N[C@@H](CC(=O)O)C(=O)N[C@@H](CO)C(=O)N[C@@H](CCSC)C(=O)N[C@@H](Cc1c[nH]c2ccccc12)C(=O)N[C@@H](Cc1ccc(O)cc1)C(=O)N[C@H](C(=O)O)[C@@H](C)CC)C(C)C [3102.0125] (H-IVRDSMWYI-OH) | 20
17 | CC(C)C[C@H](NC(=O)[C@H](Cc1c[nH]cn1)NC(=O)[C@H](CC(N)=O)NC(=O)[C@H](CC(N)=O)NC(=O)[C@H](CCCNC(=N)N)NC(=O)[C@H](CO)NC(=O)[C@@H](N)[C@@H](C)O)C(=O)N1CCC[C@H]1C(=O)N[C@@H](C)C(=O)O [3102.0126] (H-TSRNNHLPA-OH) | 15
18 | CC[C@H](C)[C@H](NC(=O)[C@H](Cc1ccccc1)NC(=O)[C@@H]1CCCN1C(=O)[C@H](C)NC(=O)[C@H](CS)NC(=O)[C@H](Cc1c[nH]c2ccccc12)NC(=O)[C@H](CCCCN)NC(=O)[C@@H](NC(=O)[C@@H](N)CCSC)[C@@H](C)O)C(=O)O [3102.0130] (H-MTKWCAPFI-OH) | 0.17
19 | CC(C)C[C@H](NC(=O)[C@H](Cc1c[nH]cn1)NC(=O)[C@H](CC(N)=O)NC(=O)[C@H](CS)NC(=O)[C@H](CCCNC(=N)N)NC(=O)[C@H](C)NC(=O)[C@@H](N)CCCCN)C(=O)N[C@H](C(=O)N[C@@H](CCCCN)C(=O)O)[C@@H](C)O [3102.0131] (H-KARCNHLTK-OH) | 0.21
20 | CC[C@H](C)[C@H](NC(=O)[C@@H](NC(=O)[C@H](Cc1ccccc1)NC(=O)[C@H](CCSC)NC(=O)[C@@H](NC(=O)[C@@H](N)CCCCN)C(C)C)C(C)C)C(=O)N[C@@H](CCCNC(=N)N)C(=O)N[C@@H](Cc1ccccc1)C(=O)N[C@@H](CCCCN)C(=O)O [3102.0133] (H-KVMFVIRFK-OH) | 0.6
21 | CSCC[C@H](NC(=O)[C@H](Cc1c[nH]cn1)NC(=O)[C@H](CC(N)=O)NC(=O)[C@H](CCCNC(=N)N)NC(=O)[C@H](Cc1ccccc1)NC(=O)[C@@H](N)CCCNC(=N)N)C(=O)N[C@@H](CS)C(=O)N[C@@H](CC(C)C)C(=O)N[C@H](C(=O)O)C(C)C [3102.0134] (H-RFRNHMCLV-OH) | 31
22 | CC(C)[C@H](NC(=O)[C@@H](N)CO)C(=O)N[C@@H](CCCCN)C(=O)N[C@@H](CS)C(=O)N[C@@H](CCC(N)=O)C(=O)N[C@@H](CO)C(=O)N1CCC[C@H]1C(=O)N1CCC[C@H]1C(=O)N[C@@H](CO)C(=O)O [3102.0135] (H-SVKCQSPPS-OH) | 17
23 | CC[C@H](C)[C@H](NC(=O)[C@@H]1CCCN1C(=O)CNC(=O)[C@H](CCSC)NC(=O)[C@H](CCCCN)NC(=O)[C@H](CCC(N)=O)NC(=O)[C@@H](N)CCCCN)C(=O)N[C@@H](Cc1ccc(O)cc1)C(=O)N[C@@H](C)C(=O)O [3102.0136] (H-KQKMGPIYA-OH) | 22
24 | CC[C@H](C)[C@H](NC(=O)[C@H](CCCCN)NC(=O)[C@H](CC(N)=O)NC(=O)[C@H](CC(N)=O)NC(=O)[C@H](CCCCN)NC(=O)[C@@H](NC(=O)[C@@H](N)CCSC)C(C)C)C(=O)N[C@@H](CCC(N)=O)C(=O)N[C@@H](CCCCN)C(=O)O [3102.0137] (H-MVKNNKIQK-OH) | 12
25 | CC[C@H](C)[C@H](NC(=O)[C@H](Cc1ccccc1)NC(=O)[C@H](CCCCN)NC(=O)[C@H](Cc1ccc(O)cc1)NC(=O)[C@H](Cc1ccccc1)NC(=O)[C@H](C)NC(=O)[C@H](CCCCN)NC(=O)[C@@H](NC(=O)[C@@H](N)Cc1c[nH]cn1)C(C)C)C(=O)O [3102.0138] (H-HVKAFYKFI-OH) | 0.35
26 | CC[C@H](C)[C@H](NC(=O)[C@H](C)NC(=O)[C@H](CCCNC(=N)N)NC(=O)[C@@H](NC(=O)[C@@H](N)CCCNC(=N)N)[C@@H](C)O)C(=O)N[C@@H](CC(N)=O)C(=O)N[C@@H](CCCCN)C(=O)N[C@@H](Cc1ccc(O)cc1)C(=O)N[C@@H](CO)C(=O)O [3102.0141] (H-RTRAINKYS-OH) | 13
27 | CC(C)[C@H](NC(=O)[C@H](Cc1ccc(O)cc1)NC(=O)[C@H](CO)NC(=O)[C@H](Cc1ccc(O)cc1)NC(=O)[C@@H](NC(=O)[C@@H]1CCCN1C(=O)[C@H](CCCCN)NC(=O)[C@H](Cc1ccc(O)cc1)NC(=O)[C@@H](N)CCCCN)C(C)C)C(=O)O [3102.0143] (H-KYKPVYSYV-OH) | 0.74
28 | CC(C)[C@H](NC(=O)[C@H](CCCCN)NC(=O)[C@H](Cc1ccccc1)NC(=O)[C@@H](NC(=O)[C@H](CC(=O)O)NC(=O)[C@H](Cc1ccc(O)cc1)NC(=O)[C@H](CCCNC(=N)N)NC(=O)[C@@H](NC(=O)[C@@H](N)CCCNC(=N)N)[C@@H](C)O)[C@@H](C)O)C(=O)O [3102.0144] (H-RTRYDTFKV-OH) | 0.2
29 | CC(C)C[C@H](NC(=O)[C@H](Cc1ccccc1)NC(=O)[C@H](CO)NC(=O)[C@H](CCCCN)NC(=O)[C@H](CC(C)C)NC(=O)[C@H](CCC(N)=O)NC(=O)[C@H](CCCCN)NC(=O)[C@H](CO)NC(=O)[C@@H](N)CCCCN)C(=O)O [3102.0146] (H-KSKQLKSFL-OH) | 13
